According to the NIST ThermoML archive (doi:10.1016/j.fluid.2017.09.019):

Test: wn = mass fraction of the nth substance listed
Settings: 101 kPa, Liquid; for viscosity: Concentric cylinders viscometry; for mass density: Vibrating tube method

CC(O)CN(C)C (stereo not given) [1-(dimethylamino)-2-propanol] + O
Settings	mass density [kg/m3]	viscosity [mPa·s]
298.15 K, w1 = 0.2	988.2	2.407
298.15 K, w1 = 0.25	986.5	2.995
298.15 K, w1 = 0.3	984.4	3.886
298.15 K, w1 = 0.35	979.5	4.735
298.15 K, w1 = 0.4	976.4	5.67
298.15 K, w1 = 0.45	970.3	6.602
298.15 K, w1 = 0.5	966.2	7.632
298.15 K, w1 = 0.6	949.4	8.956
298.15 K, w1 = 0.7	930.9	9.925
298.15 K, w1 = 0.8	908.8	8.482
298.15 K, w1 = 0.9	879.8	5.585
298.15 K, w1 = 0.95	863.9	3.79
298.15 K, w1 = 0.96	858.1	3.282
298.15 K, w1 = 0.98	852.4	2.094
298.15 K, w1 = 1	845.4	1.332
303.15 K, w1 = 0.2	985.7	2.018
303.15 K, w1 = 0.25	983.5	2.51
303.15 K, w1 = 0.3	981	3.097
303.15 K, w1 = 0.35	976.1	3.805
303.15 K, w1 = 0.4	972.1	4.54
303.15 K, w1 = 0.45	966.4	5.187
303.15 K, w1 = 0.5	962.1	5.965
303.15 K, w1 = 0.6	944.6	6.964
303.15 K, w1 = 0.7	925.3	7.654
303.15 K, w1 = 0.8	903.5	6.762
303.15 K, w1 = 0.9	875	4.935
303.15 K, w1 = 0.95	858.9	3.199
303.15 K, w1 = 0.96	853.1	2.783
303.15 K, w1 = 0.98	847.3	1.875
303.15 K, w1 = 1	840.3	1.183
308.15 K, w1 = 0.2	983	1.738
308.15 K, w1 = 0.25	980.6	2.115
308.15 K, w1 = 0.3	977.8	2.559
308.15 K, w1 = 0.35	972.4	3.115
308.15 K, w1 = 0.4	968.3	3.647
308.15 K, w1 = 0.45	961.8	4.156
308.15 K, w1 = 0.5	957.7	4.75
308.15 K, w1 = 0.6	940	5.487
308.15 K, w1 = 0.7	919.8	6.02
308.15 K, w1 = 0.8	899.1	5.106
308.15 K, w1 = 0.9	870.1	3.396
308.15 K, w1 = 0.95	854.1	2.463
308.15 K, w1 = 0.96	848.4	2.211
308.15 K, w1 = 0.98	842.4	1.499
308.15 K, w1 = 1	835.5	1.059
313.15 K, w1 = 0.2	980.4	1.509
313.15 K, w1 = 0.25	977.5	1.803
313.15 K, w1 = 0.3	973.6	2.161
313.15 K, w1 = 0.35	968.4	2.587
313.15 K, w1 = 0.4	964.1	3.016
313.15 K, w1 = 0.45	957.8	3.375
313.15 K, w1 = 0.5	953.4	3.851
313.15 K, w1 = 0.6	935.4	4.387
313.15 K, w1 = 0.7	915.8	4.853
313.15 K, w1 = 0.8	894.1	4.197
313.15 K, w1 = 0.9	865.3	2.909
313.15 K, w1 = 0.95	849.3	2.048
313.15 K, w1 = 0.96	843.6	1.835
313.15 K, w1 = 0.98	837.6	1.322
313.15 K, w1 = 1	830.7	0.955
318.15 K, w1 = 0.2	977.5	1.325
318.15 K, w1 = 0.25	974.3	1.562
318.15 K, w1 = 0.3	969.8	1.852
318.15 K, w1 = 0.35	964.1	2.194
318.15 K, w1 = 0.4	959.9	2.523
318.15 K, w1 = 0.45	953.6	2.808
318.15 K, w1 = 0.5	949	3.178
318.15 K, w1 = 0.6	930.7	3.577
318.15 K, w1 = 0.7	910.9	3.973
318.15 K, w1 = 0.8	889.4	3.577
318.15 K, w1 = 0.9	860.5	2.629
318.15 K, w1 = 0.95	844.4	1.921
318.15 K, w1 = 0.96	838.7	1.735
318.15 K, w1 = 0.98	832.6	1.2
318.15 K, w1 = 1	825.8	0.866
323.15 K, w1 = 0.2	974.2	1.179
323.15 K, w1 = 0.25	971	1.363
323.15 K, w1 = 0.3	966.2	1.598
323.15 K, w1 = 0.35	960.2	1.868
323.15 K, w1 = 0.4	955.5	2.129
323.15 K, w1 = 0.45	949.4	2.36
323.15 K, w1 = 0.5	944.5	2.652
323.15 K, w1 = 0.6	925.9	2.974
323.15 K, w1 = 0.7	906.8	3.301
323.15 K, w1 = 0.8	884.6	2.909
323.15 K, w1 = 0.9	855.9	1.929
323.15 K, w1 = 0.95	839.5	1.357
323.15 K, w1 = 0.96	833.8	1.192
323.15 K, w1 = 0.98	827.7	1.003
323.15 K, w1 = 1	820.9	0.788
328.15 K, w1 = 0.2	971.2	1.05
328.15 K, w1 = 0.25	967.6	1.201
328.15 K, w1 = 0.3	962.4	1.402
328.15 K, w1 = 0.35	955.6	1.62
328.15 K, w1 = 0.4	951.3	1.821
328.15 K, w1 = 0.45	944.2	2.008
328.15 K, w1 = 0.5	940.1	2.239
328.15 K, w1 = 0.6	921.2	2.486
328.15 K, w1 = 0.7	901.7	2.781
328.15 K, w1 = 0.8	880	2.471
328.15 K, w1 = 0.9	850.6	1.824
328.15 K, w1 = 0.95	834.6	1.348
328.15 K, w1 = 0.96	828.8	1.208
328.15 K, w1 = 0.98	822.8	0.983
328.15 K, w1 = 1	816	0.72
333.15 K, w1 = 0.2	967.8	0.934
333.15 K, w1 = 0.25	964.2	1.067
333.15 K, w1 = 0.3	958.4	1.236
333.15 K, w1 = 0.35	950.9	1.483
333.15 K, w1 = 0.4	946.7	1.577
333.15 K, w1 = 0.45	939.2	1.724
333.15 K, w1 = 0.5	936.1	1.911
333.15 K, w1 = 0.6	916	2.106
333.15 K, w1 = 0.7	897.1	2.374
333.15 K, w1 = 0.8	875.3	2.182
333.15 K, w1 = 0.9	845	1.687
333.15 K, w1 = 0.95	830.9	1.236
333.15 K, w1 = 0.96	823.8	1.102
333.15 K, w1 = 0.98	817.9	0.853
333.15 K, w1 = 1	811.1	0.662
